Laboratory results published in ChEMBL document CHEMBL1201862, “PubChem BioAssay data set” (2004).
Where a name gives a salt, the structure may show the parent alone. The source made the active and inactive calls.

Columns and labels:
H4 = experiment: Luminescence Cell-Based Dose Response HTS to Identify Activators of 5'UTR Stem-Loop Driven Prion Protein mRNA Translation in H4 Neuroglioblastoma Cells. [Related pubchem assays: 1829 (Project Summary), 1814 (Primary HTS)]; type: functional; settings: Homo sapiens
Protein RecA = target: T1, Protein RecA (Mycobacterium tuberculosis, UniProt P9WHJ3); experiment: Fluorescence Cell-Free Homogeneous Dose Retest to Identify Inhibitors of RecA-Intein Splicing Activity. [Related pubchem assays (depositor defined):AID2097, AID2223, AID489010, AID492950]; type: functional
T1 sequence (P9WHJ3 whole entry): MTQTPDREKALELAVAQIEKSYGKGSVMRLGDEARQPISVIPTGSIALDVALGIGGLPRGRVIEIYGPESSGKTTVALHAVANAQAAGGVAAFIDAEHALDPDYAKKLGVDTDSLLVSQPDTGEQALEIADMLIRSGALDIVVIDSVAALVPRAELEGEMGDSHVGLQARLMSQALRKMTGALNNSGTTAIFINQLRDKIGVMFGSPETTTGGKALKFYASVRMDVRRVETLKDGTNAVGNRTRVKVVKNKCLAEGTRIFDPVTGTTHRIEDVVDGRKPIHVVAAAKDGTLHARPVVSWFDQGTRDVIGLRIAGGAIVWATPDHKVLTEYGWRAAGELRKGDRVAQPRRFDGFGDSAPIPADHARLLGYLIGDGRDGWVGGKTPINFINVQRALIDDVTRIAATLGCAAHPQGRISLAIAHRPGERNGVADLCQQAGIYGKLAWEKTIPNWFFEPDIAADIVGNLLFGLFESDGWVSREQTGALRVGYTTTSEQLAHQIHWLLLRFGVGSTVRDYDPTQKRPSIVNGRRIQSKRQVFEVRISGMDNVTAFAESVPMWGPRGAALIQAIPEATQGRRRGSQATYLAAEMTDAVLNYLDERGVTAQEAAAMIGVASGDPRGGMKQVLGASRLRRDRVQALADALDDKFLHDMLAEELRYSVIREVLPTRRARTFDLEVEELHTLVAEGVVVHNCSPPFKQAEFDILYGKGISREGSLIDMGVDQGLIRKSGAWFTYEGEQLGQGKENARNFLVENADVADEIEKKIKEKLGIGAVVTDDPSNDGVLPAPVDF

[1] = Luminescence Cell-Based Dose Confirmation HTS to Identify Activators of 5'UTR Stem-Loop Driven Alpha-Synuclein mRNA Translation in H4 Neuroglioblastoma Cells. [Related pubchem assays: 1829 (Project Summary), 1814 (Primary HTS)]; type: functional
[2] = Luminescence Cell-Based Dose Response HTS to Identify Activators of Luciferase Translation or Activity in H4 […] Cells. [Related pubchem assays: 1829 (Project Summary), 1814 (Primary HTS)]; type: functional
[3] = Luminescence Cell-Based Dose Retest to Confirm Inhibitors of Cancer Stem Cells. [Related pubchem assays (depositor defined):AID2717, AID2721]; type: functional; settings: Homo sapiens
[4] = HEK293 cell cytotoxicity, dose response, cytotoxicity control, plate reader, cherry-picked samples (AID 743446); type: functional, cell-based
[5] = A549 cell cytotoxicity, dose response, cytotoxicity control, plate reader, cherry-pick, antagonist series (AID 743412); type: functional, cell-based
[6] = HepG2 cell cytotoxicity, dose response, cytotoxicity control, plate reader, cherry-pick, antagonist series (AID 743416); type: functional, cell-based
INS1 = experiment: beta cell apoptosis inhibitors, cytokine rescue, dose response, luminescence, retest (AID 449756); type: functional, cell-based; settings: Rattus norvegicus;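 note: cell death triggered by IL-1 beta plus TNF-alpha plus IFN-gamma mixture; protective hits raise ATP signal compared with cytokine alone wells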
[7] = HEp-2 cell cytotoxicity, dose response, cytotoxicity control for RSV inhibitor project, HTS (AID 2410); type: functional; settings: human respiratory syncytial virus
Caspase-6 = Caspase-6 (Homo sapiens, UniProt P55212); experiment: human caspase-6 inhibitors, dose response, biochemical, VEID-R110 fluorescence, cherry-pick (AID 720632)
Chain of Caspase-6 (P55212 24-179 limits assumed): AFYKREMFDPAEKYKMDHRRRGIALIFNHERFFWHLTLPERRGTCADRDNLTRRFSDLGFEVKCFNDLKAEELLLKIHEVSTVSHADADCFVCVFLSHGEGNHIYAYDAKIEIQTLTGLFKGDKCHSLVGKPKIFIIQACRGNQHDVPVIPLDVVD
Chain of Caspase-6 (P55212 194-293 limits assumed): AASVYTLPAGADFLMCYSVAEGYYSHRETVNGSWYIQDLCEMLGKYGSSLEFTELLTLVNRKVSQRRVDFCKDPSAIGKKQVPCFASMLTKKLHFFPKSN

Genome polyprotein = Genome polyprotein (dengue virus type 2, UniProt P29990); experiment: Dengue-2 NS5 methyltransferase inhibitors, primary screen, biochemical, confirmation dose response (AID 588689); type: functional
Chain of Genome polyprotein (P29990 2492-3391 limits assumed): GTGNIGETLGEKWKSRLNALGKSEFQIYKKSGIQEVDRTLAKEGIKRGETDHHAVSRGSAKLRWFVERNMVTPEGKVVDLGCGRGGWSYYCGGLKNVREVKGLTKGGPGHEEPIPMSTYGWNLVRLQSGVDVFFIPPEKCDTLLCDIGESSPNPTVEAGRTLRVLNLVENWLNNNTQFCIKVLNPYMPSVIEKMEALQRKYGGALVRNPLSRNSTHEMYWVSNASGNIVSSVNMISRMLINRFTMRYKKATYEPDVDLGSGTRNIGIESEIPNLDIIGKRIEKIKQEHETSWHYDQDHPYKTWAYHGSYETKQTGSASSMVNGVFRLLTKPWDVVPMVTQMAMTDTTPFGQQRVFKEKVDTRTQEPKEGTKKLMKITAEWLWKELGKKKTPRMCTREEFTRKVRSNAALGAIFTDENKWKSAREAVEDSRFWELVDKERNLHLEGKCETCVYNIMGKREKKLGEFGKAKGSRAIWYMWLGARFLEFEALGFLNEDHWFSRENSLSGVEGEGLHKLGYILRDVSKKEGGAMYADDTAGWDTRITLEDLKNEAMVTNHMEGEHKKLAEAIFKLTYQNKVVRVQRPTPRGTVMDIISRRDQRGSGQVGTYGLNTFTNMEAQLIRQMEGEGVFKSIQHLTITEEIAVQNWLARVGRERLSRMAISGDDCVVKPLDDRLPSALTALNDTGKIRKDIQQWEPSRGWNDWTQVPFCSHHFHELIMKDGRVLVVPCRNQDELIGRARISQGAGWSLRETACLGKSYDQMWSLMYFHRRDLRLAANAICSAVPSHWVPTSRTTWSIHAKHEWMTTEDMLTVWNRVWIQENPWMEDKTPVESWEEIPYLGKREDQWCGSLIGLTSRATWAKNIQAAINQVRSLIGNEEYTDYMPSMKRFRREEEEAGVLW

[8] = target: E3 ubiquitin-protein ligase Mdm2 (Homo sapiens, UniProt Q00987); experiment: enhancers of MDM2-luciferase reporter signal, concentration-effect titration, project on inhibitors of MDM2 ubiquitin ligase, cellular assay, luminescent readout, 384-well plate format (AID 1394); type: functional;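 note: MDM2 E3 inhibitors raise luminescence so EC50 is for signal enhancement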
Chain of E3 ubiquitin-protein ligase Mdm2 (Q00987 whole entry): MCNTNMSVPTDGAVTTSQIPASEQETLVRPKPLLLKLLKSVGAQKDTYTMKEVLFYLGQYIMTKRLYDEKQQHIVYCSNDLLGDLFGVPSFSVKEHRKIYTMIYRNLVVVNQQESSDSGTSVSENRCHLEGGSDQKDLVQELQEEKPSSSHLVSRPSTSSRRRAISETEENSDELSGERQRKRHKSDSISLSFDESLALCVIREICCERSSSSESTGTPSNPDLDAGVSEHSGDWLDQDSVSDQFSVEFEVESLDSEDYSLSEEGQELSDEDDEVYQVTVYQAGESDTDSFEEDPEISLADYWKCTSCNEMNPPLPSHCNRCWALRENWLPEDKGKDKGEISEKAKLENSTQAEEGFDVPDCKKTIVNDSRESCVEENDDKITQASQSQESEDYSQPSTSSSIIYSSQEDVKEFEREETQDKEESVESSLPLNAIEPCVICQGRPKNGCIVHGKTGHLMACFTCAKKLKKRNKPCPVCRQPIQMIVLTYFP

[9] = inhibitors of Vif binding to APOBEC3G peptide, primary screen, biochemical, TR-FRET, GST-Vif 1-94, biotin-A3G peptide, dose response retest (AID 1117319); type: functional;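 note: TR-FRET signal of purified GST-Vif binding a biotinylated A3G peptide; inhibitors lower the FRET signal by blocking Vif and A3G binding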
[10] = growth suppression of beta-catenin-knockout colon cells, dose response, cell-based, HCT116, human colon tumor (AID 1045); type: functional;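 note: HCT116 colon tumor cells with beta catenin knocked out; cells exposed to compound for 60 hours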
Vero [11] = experiment: cells; type: functional; settings: Chlorocebus sabaeus
[12] = target: Disintegrin and metalloproteinase domain-containing protein 17 (Homo sapiens, UniProt P78536); experiment: ADAM17 protease inhibitors, dose response, counter-screen for ADAM10 exosite inhibitor project, biochemical, quenched FRET substrate (AID 743253)
Chain of Disintegrin and metalloproteinase domain-containing protein 17 (P78536 whole entry, the tested form may be a part): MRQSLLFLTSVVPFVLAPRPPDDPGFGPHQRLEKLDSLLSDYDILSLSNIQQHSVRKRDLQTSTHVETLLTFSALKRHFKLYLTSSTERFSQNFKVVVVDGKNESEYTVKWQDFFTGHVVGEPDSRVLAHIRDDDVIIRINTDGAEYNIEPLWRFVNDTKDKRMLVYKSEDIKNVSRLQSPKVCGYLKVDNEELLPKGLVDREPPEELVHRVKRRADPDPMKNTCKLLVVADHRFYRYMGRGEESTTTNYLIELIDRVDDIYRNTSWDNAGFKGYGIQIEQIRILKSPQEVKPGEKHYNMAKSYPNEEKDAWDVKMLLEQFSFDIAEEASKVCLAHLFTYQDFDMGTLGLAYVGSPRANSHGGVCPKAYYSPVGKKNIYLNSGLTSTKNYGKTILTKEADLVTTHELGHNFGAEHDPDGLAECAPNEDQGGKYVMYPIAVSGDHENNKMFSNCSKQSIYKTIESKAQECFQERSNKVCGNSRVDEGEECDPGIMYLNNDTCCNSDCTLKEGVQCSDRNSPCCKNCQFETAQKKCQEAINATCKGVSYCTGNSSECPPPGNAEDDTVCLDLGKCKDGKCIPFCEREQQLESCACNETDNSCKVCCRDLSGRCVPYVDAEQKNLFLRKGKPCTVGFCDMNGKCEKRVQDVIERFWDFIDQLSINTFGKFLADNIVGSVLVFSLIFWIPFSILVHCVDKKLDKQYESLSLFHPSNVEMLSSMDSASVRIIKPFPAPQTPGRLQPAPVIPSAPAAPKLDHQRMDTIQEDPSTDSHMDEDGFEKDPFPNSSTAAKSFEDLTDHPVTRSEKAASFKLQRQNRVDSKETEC

Vero [13] = experiment: cells; type: functional, cell-based; settings: Chlorocebus sabaeus
[14] = growth suppression of PTEN-null colon cells, dose response, cell-based, HCT116 PTEN knockout (AID 1047); type: functional;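 note: HCT116 colon tumor cells with PTEN knocked out; cells exposed to compound for 60 hours before readout; potency for loss of cell viability measured by luminescence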
[15] = ADAM10 inhibitors, peptide cleavage, dose response, biochemical, QFRET (AID 743254);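 note: ADAM10 enzyme with the DM2 quenched FRET peptide as substrate; EDANS fluorescence gain as the protease cuts the substrate; inhibitor potency against ADAM10 proteolytic activity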
[16] = target: T2, Heat shock factor protein 1 (Mus musculus, UniProt P38532); experiment: HSF1 potentiators in luciferase reporter cells, confirmation, cell-based, NIH3T3, luminescence, dose retest (AID 435004); type: functional;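 note: stress induced by proteasome inhibitor MG132 added 30 min after compound; luciferase reporter driven by HSF1 response element in NIH3T3 cells; actives raise luminescence as potentiators of the MG132 stress response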
T2 sequence (P38532 whole entry): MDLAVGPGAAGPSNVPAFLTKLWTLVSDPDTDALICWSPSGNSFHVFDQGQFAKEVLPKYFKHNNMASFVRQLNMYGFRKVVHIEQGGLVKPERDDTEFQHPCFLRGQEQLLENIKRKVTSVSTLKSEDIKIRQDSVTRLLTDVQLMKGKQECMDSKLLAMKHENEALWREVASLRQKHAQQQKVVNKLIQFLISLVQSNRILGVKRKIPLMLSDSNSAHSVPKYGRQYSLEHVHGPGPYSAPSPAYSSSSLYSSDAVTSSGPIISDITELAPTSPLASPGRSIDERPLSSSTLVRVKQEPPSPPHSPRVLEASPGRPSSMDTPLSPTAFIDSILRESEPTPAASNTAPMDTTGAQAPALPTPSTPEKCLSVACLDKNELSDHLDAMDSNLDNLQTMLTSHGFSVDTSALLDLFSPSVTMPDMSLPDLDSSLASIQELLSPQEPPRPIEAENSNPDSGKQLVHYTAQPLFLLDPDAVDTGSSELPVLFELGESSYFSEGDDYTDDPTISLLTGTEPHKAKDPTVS

[17] = target: Mitogen-activated protein kinase 10 (Homo sapiens, UniProt P53779); experiment: Dose response biochemical screening assay for inhibitors of c-Jun N-Terminal Kinase 3 (JNK3). [Related pubchem assays: 746 ]
Chain of Mitogen-activated protein kinase 10 (P53779 whole entry): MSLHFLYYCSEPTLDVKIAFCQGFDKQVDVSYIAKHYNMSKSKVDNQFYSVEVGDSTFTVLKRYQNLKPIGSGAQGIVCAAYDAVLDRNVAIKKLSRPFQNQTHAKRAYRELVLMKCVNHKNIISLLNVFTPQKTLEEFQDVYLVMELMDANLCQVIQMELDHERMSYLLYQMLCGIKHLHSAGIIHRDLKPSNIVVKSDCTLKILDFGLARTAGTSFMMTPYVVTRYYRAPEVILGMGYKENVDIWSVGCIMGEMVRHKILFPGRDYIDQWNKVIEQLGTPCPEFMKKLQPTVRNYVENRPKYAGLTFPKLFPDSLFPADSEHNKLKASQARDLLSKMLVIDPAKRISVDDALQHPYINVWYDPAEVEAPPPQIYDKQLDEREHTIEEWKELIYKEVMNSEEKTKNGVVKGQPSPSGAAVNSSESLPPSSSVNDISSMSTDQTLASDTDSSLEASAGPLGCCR

[18] = inhibitors of intracellular T. cruzi replication, confirmation, NIH3T3 host cells, beta-gal luminescence (AID 2044); type: functional, cell-based;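 note: intracellular parasites grown in NIH/3T3 mouse fibroblasts as host cells; luminescent beta-galactosidase reporter signal from transgenic T. cruzi replicating inside host cells; inhibitors lower the luminescence signal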
[19] = cytotoxicity toward NIH3T3 fibroblasts, dose response, counter-screen, cell-based, ATP luminescence, mouse fibroblasts (AID 2010); type: functional;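 note: cells exposed to compound for about 90 hours before reading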
[20] = A2780 ovarian cancer cell cytotoxicity, dose response, cytotoxicity control, plate reader, dry powder samples (AID 743046); type: functional, cell-based
Paired box protein Pax-8 = Paired box protein Pax-8 (Homo sapiens, UniProt Q06710); experiment: inhibitors of PAX8-driven TPO luciferase reporter, dose response, RMG-I cells, cherry-pick (AID 687027); type: functional, cell-based;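 note: luciferase reporter driven by Pax8 target thyroperoxidase promoter measured by SteadyGlo luminescence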
Chain of Paired box protein Pax-8 (Q06710 whole entry): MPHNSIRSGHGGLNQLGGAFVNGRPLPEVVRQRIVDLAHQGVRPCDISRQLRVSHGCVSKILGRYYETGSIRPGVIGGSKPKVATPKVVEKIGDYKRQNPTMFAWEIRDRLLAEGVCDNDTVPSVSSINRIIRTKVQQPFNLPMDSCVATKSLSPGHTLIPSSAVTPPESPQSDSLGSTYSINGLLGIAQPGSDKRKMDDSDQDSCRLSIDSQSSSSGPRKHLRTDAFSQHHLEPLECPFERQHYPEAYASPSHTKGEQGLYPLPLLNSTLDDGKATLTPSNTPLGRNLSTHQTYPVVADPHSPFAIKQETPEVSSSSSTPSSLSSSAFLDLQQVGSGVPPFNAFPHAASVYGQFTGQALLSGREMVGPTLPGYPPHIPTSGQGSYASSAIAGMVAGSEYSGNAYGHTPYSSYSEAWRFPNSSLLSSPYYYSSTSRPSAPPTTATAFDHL

[21] = inhibitors of non-replicating M. tuberculosis, dose response, luciferase, dry powder (AID 651619); type: functional; settings: Mycobacterium tuberculosis
[22] = inhibitors of non-replicating M. tuberculosis, dose response, luciferase, dry powder (AID 651620); type: functional; settings: Mycobacterium tuberculosis
[23] = CTGF mRNA reduction under YAP1 overexpression, dose response, mechanism study for YAP1 pathway inhibitor project, DLD1 cells, RT-qPCR, cherry-pick (AID 1053127); type: functional, cell-based; settings: DLD-1
[24] = A375 melanoma cell cytotoxicity, dose response, counter-screen for MITF inhibitor project, CellTiter-Glo luminescence, dry powder, set 2 (AID 624489); type: functional, cell-based; settings: A-375;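 note: actives are compounds lowering A375 viability meaning general cytotoxicity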
[25] = A375 melanoma cell viability loss, dose response, counter-screen for MITF inhibitor project, CellTiter-Glo luminescence, dry powder, set 4 (AID 624364); type: functional, cell-based; settings: A-375;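 note: A375 melanoma cells are MITF independent so this is a counter screen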
[26] = cytotoxicity toward HCT116 cells – cell-based, CellTiter-Glo luminescence, IC50, dose response (AID 1117332); type: functional; settings: HCT-116
[27] = cytotoxicity toward HT-29 cells – cell-based, CellTiter-Glo luminescence, IC50, dose response (AID 1117330); type: functional
[28] = Concentration-dependent survival of SW480 colon cancer line, luminescence detection with CellTiter-Glo, half-maximal inhibitory concentration (AID 1117338); type: functional
[29] = RKO cell viability reduction, dose response, CellTiter-Glo luminescence (AID 1117322); type: functional
[30] = CellTiter-Glo luminescent dose response of DLD-1 viability loss (AID 1117352); type: functional
[31] = cytotoxicity toward Colo320 cells – cell-based, CellTiter-Glo luminescence, IC50, dose response (AID 1117334); type: functional; settings: COLO 320
[32] = SNU-C1 cell viability reduction, dose response, CellTiter-Glo luminescence (AID 1117323); type: functional, cell-based
[33] = HCT116 cell viability decrease, GSK3B pretreatment – CellTiter-Glo, IC50, dose response (AID 1117339); type: functional; settings: HCT-116
[34] = HeLa 4N DNA content increase, dose response, cell-based, IC50 (AID 1117351); type: functional
[35] = HeLa 2N DNA content increase, dose response, cell-based, IC50 (AID 1117349); type: functional

COc1cc(NC2CCCCC2O)c2nc(-c3ccc(Cl)cc3)ccc2c1 (configuration not stated)
EC50 (H4): > 60 µM (not active) | EC50 (Protein RecA): 0.0728 µM (active) | EC50 [1]: 9.15 µM (active) | EC50 [2]: 12.9 µM (active) | AC50 [3]: 2.07 µM (active) | AC50 [4]: > 52 µM (inactive) | AC50 [5]: 20.3 µM (active) | AC50 [6]: 26.3 µM (active) | AC50 (INS1): 3.57 µM (active)

CCCCC(NC(=O)Cc1c(C)c2cc3c(-c4ccccc4)coc3c(C)c2oc1=O)C(=O)O (configuration not stated)
CC50 [7]: > 50 µM (active) | AC50 (Caspase-6): 22 µM (active) | IC50 (cells): 45.9 µM (active) | IC50 (Genome polyprotein): 51 µM (active)

COc1cc2c(cc1OC)CN(C(=O)c1ccco1)CC2
EC50 [8]: 11.1 µM (not active)

O=C(c1cc2ccccc2oc1=O)N1CCN(c2ccc(N3CCOCC3)nn2)CC1
IC50 [9]: > 100 µM (active)

CCOC(=O)/C(=C\c1ccccc1)NC(=O)c1ccccc1
IC50 [9]: > 100 µM (active)

Cc1ccc(N(CC(=O)NCCc2ccc(F)cc2)S(=O)(=O)c2ccc(Cl)c([N+](=O)[O-])c2)c(C)c1
EC50 [10]: 8.87 µM (active) | CC50 (Vero [11]): 18.4 µM (active) | IC50 [12]: > 69.5 µM (inactive) | IC50 (Vero [13]): > 25 µM (active) | EC50 [14]: 14 µM (active) | IC50 [15]: > 69.5 µM (inactive) | EC50 [16]: 17.1 µM (active)

CC(=O)c1c(C)[nH]c(C(=O)OCn2nnc3ccccc3c2=O)c1C
IC50 [17]: 34.2 µM (not active)

O=C(Nc1nccs1)c1ccc(Br)o1
IC50 [17]: > 31 µM (not active)

O=C(N/N=C/c1ccc([N+](=O)[O-])o1)C1CC1
EC50 [18]: 0.36 µM (active) | AC50 (Caspase-6): 10 µM (active) | EC50 [19]: > 60 µM (not active)

CC(C)CC#Cc1ccc([C@@H]2[C@@H](CO)N3CCCCN(S(=O)(=O)c4ccc(F)cc4)C[C@H]23)cc1
AC50 [20]: 52.3 µM (active) | AC50 (Paired box protein Pax-8): 12.4 µM (active)

Brc1cccc(-c2nnc(SCc3ccccn3)o2)c1
IC90 [21]: 4 µM (active) | IC90 [22]: 4 µM (active)

O=C(Cc1ccncc1)N1CCCCN2[C@H](CO)[C@@H](c3ccc(C#Cc4ccccc4F)cc3)[C@H]2C1
AC50 [23]: 15.1 µM (active)

CC(C)(C)[S@@+]([O-])N1Cc2cc(C(=O)NCC(F)(F)F)nc(-c3cccc(-c4cccc(F)c4)c3)c2[C@H]1CCO
AC50 [23]: > 26 µM (inactive)

COc1ccc(C2=C(N)C(=O)c3ccccc3C2=O)cc1
AC50 [24]: > 70 µM (inactive) | AC50 [25]: > 70 µM (inactive)

O=c1sc2ccccc2c(O)c1C1CC(c2ccc(-c3ccc(Br)cc3)cc2)Cc2ccccc21 (configuration not stated)
IC50 [26]: 0.485 µM (active) | IC50 [27]: 0.436 µM (active) | IC50 [28]: 0.187 µM (active) | IC50 [29]: 0.538 µM (active) | IC50 [30]: 0.239 µM (active) | IC50 [31]: 0.735 µM (active) | IC50 [32]: 0.252 µM (active)

COc1ccc(C2=C(NC(C)=O)C(=O)c3ccccc3C2=O)cc1
AC50 [24]: 8.33 µM (active) | AC50 [25]: 13.4 µM (active)

COc1cc(NC(C)CCCN)c2ncccc2c1 (configuration not stated) [PRIMAQUINE]
IC50 [33]: > 20 µM (inactive) | IC50 [34]: > 10 µM (inactive) | IC50 [26]: 1.88 µM (active) | IC50 [28]: > 20 µM (inactive) | IC50 [35]: > 10 µM (inactive) | IC50 [29]: > 20 µM (inactive) | IC50 [30]: > 20 µM (inactive) | IC50 [31]: > 20 µM (inactive) | IC50 [32]: > 20 µM (inactive)

O=C(CCCN1CCC(O)(c2cccc(C(F)(F)F)c2)CC1)c1ccc(F)cc1 [TRIFLUPERIDOL HYDROCHLORIDE]
IC50 [33]: > 20 µM (inactive) | IC50 [26]: > 20 µM (inactive) | IC50 [27]: > 20 µM (inactive) | IC50 [28]: > 20 µM (inactive) | IC50 [29]: > 20 µM (inactive) | IC50 [30]: > 20 µM (inactive) | IC50 [31]: > 20 µM (inactive) | IC50 [32]: > 20 µM (inactive)
